Values of other authors, collected in US7205279B2, “Pharmaceutical compositions” (Novartis AG, priority 1995, dated 2007).

Settings: room temperature

CCOC(C)=O [Ethyl acetate]
solubility in water: 8.5 g per 100 ml
